Source: ChEMBL document CHEMBL1151107, “Inhibition of dopamine beta-hydroxylase by goitrin, a natural antithyroid compound” (J Nat Prod, 1988)

Experiments:
Rattus norvegicus [1] = assay: Inhibition of dopamine beta-hydroxylase in Sprague-Dawley rat assessed as increase in adrenal dopamine level at 50 mg/kg, ip after 4 hrs by liquid chromatography (RVb=5.9+/-1.0); type: functional; conditions: route intraperitoneal
Rattus norvegicus [2] = assay: Inhibition of dopamine beta-hydroxylase in Sprague-Dawley rat assessed as decrease in brain norepinephrine level at 50 mg/kg, ip after 1 hr by liquid chromatography (RVb=0.222+/-0.069); type: functional; conditions: route intraperitoneal
[3] = biological target: T1, Dopamine beta-hydroxylase (Bos taurus) (UniProt P15101); assay: Inhibition of bovine adrenal dopamine beta-hydroxylase assessed as norepinephrine formation per mg of protein at 0.1 mM after 45 mins
T1 sequence (whole entry): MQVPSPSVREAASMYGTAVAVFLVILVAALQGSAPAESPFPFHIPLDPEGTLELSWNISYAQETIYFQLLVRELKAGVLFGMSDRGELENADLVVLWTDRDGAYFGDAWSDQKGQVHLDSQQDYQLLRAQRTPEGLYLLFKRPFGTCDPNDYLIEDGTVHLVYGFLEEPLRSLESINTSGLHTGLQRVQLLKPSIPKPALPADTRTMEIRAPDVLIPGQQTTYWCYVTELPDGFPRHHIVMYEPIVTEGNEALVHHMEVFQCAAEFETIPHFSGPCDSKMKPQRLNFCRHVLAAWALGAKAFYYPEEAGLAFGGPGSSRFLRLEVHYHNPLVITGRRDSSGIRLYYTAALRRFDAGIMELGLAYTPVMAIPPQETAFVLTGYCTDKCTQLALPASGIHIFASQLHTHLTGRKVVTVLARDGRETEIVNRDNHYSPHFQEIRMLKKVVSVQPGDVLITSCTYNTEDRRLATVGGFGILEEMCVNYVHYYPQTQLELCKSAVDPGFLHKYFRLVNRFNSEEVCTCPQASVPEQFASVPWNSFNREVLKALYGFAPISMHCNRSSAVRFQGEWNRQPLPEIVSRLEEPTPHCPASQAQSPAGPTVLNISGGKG

Rattus norvegicus [4] = assay: Inhibition of dopamine beta-hydroxylase in Sprague-Dawley rat assessed as increase in cardiac dopamine level at 50 mg/kg, ip after 4 hrs by liquid chromatography (RVb=0.023+/-0.005); type: functional; conditions: route intraperitoneal
[5] = biological target: T1, Dopamine beta-hydroxylase (Bos taurus); assay: Inhibition of bovine adrenal dopamine beta-hydroxylase assessed as norepinephrine formation per mg of protein at 0.2 mM after 45 mins
Rattus norvegicus [6] = assay: Inhibition of dopamine beta-hydroxylase in Sprague-Dawley rat assessed as decrease in brain norepinephrine level at 50 mg/kg, ip after 6 hrs by liquid chromatography (RVb=0.206+/-0.022); type: functional; conditions: route intraperitoneal
Rattus norvegicus [7] = assay: Inhibition of dopamine beta-hydroxylase in Sprague-Dawley rat assessed as decrease in brain norepinephrine level at 50 mg/kg, ip after 2.5 hrs by liquid chromatography (RVb=0.216+/-0.025); type: functional; conditions: route intraperitoneal
[8] = Drug level in Sprague-Dawley rat brain at 50 mg/kg, ip after 4 hrs; type: ADME, organism-based; set-up: dose 50 mg/kg, route intraperitoneal; conditions: read-out: Drug uptake
[9] = Drug level in Sprague-Dawley rat heart at 50 mg/kg, ip after 4 hrs; type: ADME, organism-based; set-up: dose 50 mg/kg, route intraperitoneal; conditions: read-out: Drug uptake
[10] = biological target: T1, Dopamine beta-hydroxylase (Bos taurus); assay: Inhibition of bovine adrenal dopamine beta-hydroxylase at 0.1 mM
[11] = biological target: T1, Dopamine beta-hydroxylase (Bos taurus); assay: Inhibition of bovine adrenal dopamine beta-hydroxylase at 0.2 mM

Activity [3] [nmol]	Activity [5] [nmol]	concentration at 4 h [8] [ng/g]	concentration at 4 h [9] [ng/g]	inhibition [10] [%]	inhibition [11] [%]	SMILES	Activity (Rattus norvegicus [1]) [µg/g]	Activity (Rattus norvegicus [2]) [µg/g]	Activity (Rattus norvegicus [4]) [µg/g]	Activity (Rattus norvegicus [6]) [µg/g]	Activity (Rattus norvegicus [7]) [µg/g]
77	49	21000	22300	55	78	C=CC1CNC(=S)O1 (stereo unspecified)	10	0.249	0.071	0.092	0.158
62						C=C[C@@H]1CNC(=S)O1					
	53					Cn1ccnc1S [METHIMAZOLE]		0.216		0.076	0.143
